Assay results: ChEMBL document CHEMBL3352623, “Improved antiproliferative activity of 1,3,4-thiadiazole-containing histone deacetylase (HDAC) inhibitors by introduction of the heteroaromatic surface recognition motif” (Bioorg Med Chem, 2014)

Legend:
[1] = target: Histone deacetylase (HDAC1 and HDAC2) (Homo sapiens, UniProt Q13547+Q92769); test: Inhibition of HDAC1/HDAC2 in human HeLa cell extract incubated for 5 mins prior to substrate addition measured after 30 mins by microtitre plate reader analysis; assay type: cell-based
[2] = system: MDA-MB-231; test: Antiproliferative activity against human MDA-MB-231 cells after 48 hrs by MTT assay; assay type: functional, cell-based; settings: MDA-MB-231, 48 h
[3] = system: K562; test: Antiproliferative activity against human K562 cells after 48 hrs by MTT assay; assay type: functional, cell-based; settings: K562, 48 h
[4] = Antiproliferative activity against human PC3 cells after 48 hrs by MTT assay; assay type: functional, cell-based; settings: PC-3, 48 h

Row | SMILES | IC50 [1] [µM] | IC50 [2] [µM] | IC50 [3] [µM] | IC50 [4] [µM]
1 | O=C(CCCCCCC(=O)Nc1nnc(-c2ccco2)s1)NO | 0.436 | – | – | –
2 | O=C(CCCCCCC(=O)Nc1nnc(-c2cccnc2)s1)NO | 0.386 | 1.87 | 4.36 | 7.98
3 | O=C(CCCCCC(=O)Nc1nnc(-c2cccnc2)s1)NO | 0.325 | 11.7 | > 60 | 54.4
4 | O=C(CCCCCCC(=O)Nc1nnc(-c2ccc(N3CCOCC3)cc2)s1)NO | > 5 | – | – | –
5 | O=C(CCCCCC(=O)Nc1nnc(-c2ccco2)s1)NO | 0.434 | – | – | –
6 | O=C(CCCCCCC(=O)Nc1nnc(-c2cccc3ccccc23)s1)NO | > 5 | – | – | –
7 | CS(=O)(=O)c1ccc(-c2nnc(NC(=O)CCCCCC(=O)NO)s2)cc1 | 0.721 | – | – | –
8 | O=C(CCCCCCC(=O)Nc1nnc(-c2ccc(C(F)(F)F)cc2)s1)NO | > 5 | – | – | –
9 | O=C(CCCCCCC(=O)Nc1nnc(-c2ccc3ccccc3c2)s1)NO | > 5 | – | – | –
10 | O=C(CCCCCC(=O)Nc1nnc(-c2ccc(-c3ccccc3)cc2)s1)NO | > 5 | – | – | –
11 | O=C(CCCCCC(=O)Nc1nnc(-c2cccc3ccccc23)s1)NO | 3.186 | – | – | –
12 | O=C(CCCCCC(=O)Nc1nnc(-c2ccc(Cl)cc2)s1)NO | 0.988 | – | – | –
13 | O=C(CCCCCC(=O)Nc1nnc(-c2ccc(Br)cc2)s1)NO | 1.285 | – | – | –
14 | O=C(CCCCCCC(=O)Nc1nnc(-c2cccc(Br)c2)s1)NO | 1.215 | – | – | –
15 | O=C(CCCCCC(=O)Nc1nnc(-c2ccc3ccccc3c2)s1)NO | > 5 | – | – | –
16 | O=C(CCCCCC(=O)Nc1nnc(-c2ccc(C(F)(F)F)cc2)s1)NO | 1.154 | – | – | –
17 | O=C(CCCCCCC(=O)Nc1nnc(-c2ccccc2Br)s1)NO | 0.526 | – | – | –
18 | O=C(CCCCCCC(=O)Nc1nnc(-c2ccc(I)cc2)s1)NO | > 5 | – | – | –

Row | SMILES | IC50 [1] [µM] | IC50 [2] [µM] | IC50 [3] [µM] | IC50 [4] [µM]
19 | O=C(CCCCCC(=O)Nc1nnc(-c2cccs2)s1)NO | 0.411 | 15.2 | > 60 | > 60
20 | O=C(CCCCCC(=O)Nc1nnc(-c2ccc(N3CCOCC3)cc2)s1)NO | > 5 | – | – | –
21 | O=C(CCCCCCC(=O)Nc1nnc(-c2cccs2)s1)NO | 0.31 | 1.21 | 1.56 | 3.6
22 | O=C(CCCCCCC(=O)Nc1ccccc1)NO [VORINOSTAT] | – | 2.29 | – | –
23 | O=C(CCCCCC(=O)Nc1nnc(-c2ccc(I)cc2)s1)NO | 0.875 | – | – | –
24 | O=C(CCCCCC(=O)Nc1nnc(-c2ccncc2)s1)NO | 0.411 | 40.1 | > 60 | > 60
25 | COc1ccc(-c2nnc(NC(=O)CCCCCC(=O)NO)s2)cc1OC | 0.487 | – | – | –
26 | Cc1ccc(-c2nnc(NC(=O)CCCCCC(=O)NO)s2)cc1 | 0.422 | – | – | –
27 | O=C(CCCCCCC(=O)Nc1nnc(-c2ccc(-c3ccccc3)cc2)s1)NO | > 5 | – | – | –
28 | COc1ccc(-c2nnc(NC(=O)CCCCCC(=O)NO)s2)cc1 | 0.437 | – | – | –
29 | CS(=O)(=O)c1ccc(-c2nnc(NC(=O)CCCCCCC(=O)NO)s2)cc1 | 0.598 | – | – | –
30 | O=C(CCCCCC(=O)Nc1nnc(-c2ccccc2Cl)s1)NO | 0.507 | – | – | –
31 | O=C(CCCCCC(=O)Nc1nnc(-c2ccc(F)cc2)s1)NO | 0.741 | – | – | –
32 | O=C(CCCCCC(=O)Nc1nnc(-c2cccc(Cl)c2)s1)NO | 0.847 | – | – | –
33 | O=C(CCCCCC(=O)Nc1nnc(-c2ccc([N+](=O)[O-])cc2)s1)NO | 0.709 | – | – | –
34 | CN(C)c1ccc(-c2nnc(NC(=O)CCCCCC(=O)NO)s2)cc1 | > 5 | – | – | –
35 | O=C(CCCCCCC(=O)Nc1nnc(-c2ccncc2)s1)NO | 0.286 | 4.69 | 4.15 | 7.75
